Inhibition and IC50 data for five compounds are collected here from ChEMBL document CHEMBL5113403, “Design, synthesis, and biological evaluation of novel pyrazolo [3,4-d]pyrimidine derivatives as potent PLK4 inhibitors for the treatment of TRIM37-amplified breast cancer” (Eur J Med Chem, 2022).

Each structure is given as a SMILES string.

What is called inhibition is the share of the control response that was lost under treatment. Higher therefore signals a strong effect. The IC50 is the midpoint of a concentration-inhibition curve.

The target in one data set is CYP2C9 (Homo sapiens, UniProt P11712). Nature of the data set: Inhibition of CYP2C9 in human liver microsomes at 10 uM preincubated for 10 mins followed by addition of NADPH-regenerating system and measured after 15 mins by LC-MS/MS analysis relative to control. It counts as ADME, Microsome. As to conditions: time 25 min.
Another data set addresses CYP2D6 (Homo sapiens, UniProt P10635). In words: Inhibition of CYP2D6 in human liver microsomes at 10 uM preincubated for 10 mins followed by addition of NADPH-regenerating system and measured after 15 mins by LC-MS/MS analysis relative to control. As to conditions: time 25 min. It counts as ADME, Microsome. In general terms: Liver microsomes are a subcellular fraction often used to study metabolism.

Data set [1] has as its target T1, Serine/threonine-protein kinase PLK4 (Homo sapiens, UniProt O00444).
T1 sequence (O00444 whole entry): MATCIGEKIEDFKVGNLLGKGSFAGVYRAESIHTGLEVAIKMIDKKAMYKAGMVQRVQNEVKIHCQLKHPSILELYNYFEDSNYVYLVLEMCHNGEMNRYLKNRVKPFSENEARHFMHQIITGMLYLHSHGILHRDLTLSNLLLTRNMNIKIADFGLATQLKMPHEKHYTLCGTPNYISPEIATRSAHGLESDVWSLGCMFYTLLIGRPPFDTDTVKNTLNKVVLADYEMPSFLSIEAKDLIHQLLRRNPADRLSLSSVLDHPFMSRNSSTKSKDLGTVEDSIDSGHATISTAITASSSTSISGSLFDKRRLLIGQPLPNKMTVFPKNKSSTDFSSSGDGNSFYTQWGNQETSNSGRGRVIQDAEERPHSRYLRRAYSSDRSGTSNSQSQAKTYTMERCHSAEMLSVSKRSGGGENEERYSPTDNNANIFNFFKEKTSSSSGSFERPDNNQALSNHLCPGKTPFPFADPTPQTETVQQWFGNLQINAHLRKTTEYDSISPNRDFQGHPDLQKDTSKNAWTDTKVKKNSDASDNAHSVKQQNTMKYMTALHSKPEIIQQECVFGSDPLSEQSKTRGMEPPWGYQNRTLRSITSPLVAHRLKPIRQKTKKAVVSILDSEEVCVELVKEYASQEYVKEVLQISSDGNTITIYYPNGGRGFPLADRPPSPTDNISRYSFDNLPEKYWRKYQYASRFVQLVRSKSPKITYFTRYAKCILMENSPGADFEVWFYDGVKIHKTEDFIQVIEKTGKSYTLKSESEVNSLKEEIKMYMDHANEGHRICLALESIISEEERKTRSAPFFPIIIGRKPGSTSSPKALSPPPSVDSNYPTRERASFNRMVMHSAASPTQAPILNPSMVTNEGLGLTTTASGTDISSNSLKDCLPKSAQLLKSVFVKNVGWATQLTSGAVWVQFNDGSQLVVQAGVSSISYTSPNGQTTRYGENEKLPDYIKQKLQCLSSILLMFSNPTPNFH
Nature of the data set: Inhibition of recombinant human PLK4 incubated for 60 mins by Lanthascreen Eu kinase binding assay. For orientation: TR-FRET usually uses a lanthanide donor and a delayed reading to cut background.

Data set [2] deals with T2, Serine/threonine-protein kinase PAK 4 (Homo sapiens, UniProt O96013). In words: Inhibition of PAK4 (unknown origin) incubated for 60 mins by time-resolved HTRF assay.
In another data set the test system is BT-474. In words: Antiproliferative activity against human BT-474 cells assessed as cell growth inhibition incubated for 5 days by MTT assay. It counts as functional, cell-based. As to conditions: BT-474, 120 h.
Another data set concerns MCF7. In words: Antiproliferative activity against human MCF7 cells assessed as cell growth inhibition incubated for 5 days by MTT assay. It counts as functional, cell-based. As to conditions: MCF7, 120 h. On the technique in general: Tetrazolium dyes change colour on reduction, which living cells bring about.
A further data set deals with MDA-MB-231. Nature of the data set: Antiproliferative activity against human MDA-MB-231 cells assessed as cell growth inhibition incubated for 5 days by MTT assay. It counts as functional, cell-based. To be noted: MDA-MB-231, 120 h.
Data set [3] deals with T1, Serine/threonine-protein kinase PLK4. In words: Inhibition of PLK4 (unknown origin).
For data set [4], the target named is T3, Serine/threonine-protein kinase PLK4 (Homo sapiens) (UniProt O00444).
T3 sequence (whole entry): T1 sequence (O00444 whole entry)
Nature of the data set: Inhibition of PLK4 (unknown origin) at 2 uM relative to control.

For data set [5], the target named is T2, Serine/threonine-protein kinase PAK 4. Nature of the data set: Inhibition of PAK4 (unknown origin) using S2 as substrate incubated for 60 mins in the presence of ATP by time-resolved HTRF assay.

T2 sequence (O96013 whole entry): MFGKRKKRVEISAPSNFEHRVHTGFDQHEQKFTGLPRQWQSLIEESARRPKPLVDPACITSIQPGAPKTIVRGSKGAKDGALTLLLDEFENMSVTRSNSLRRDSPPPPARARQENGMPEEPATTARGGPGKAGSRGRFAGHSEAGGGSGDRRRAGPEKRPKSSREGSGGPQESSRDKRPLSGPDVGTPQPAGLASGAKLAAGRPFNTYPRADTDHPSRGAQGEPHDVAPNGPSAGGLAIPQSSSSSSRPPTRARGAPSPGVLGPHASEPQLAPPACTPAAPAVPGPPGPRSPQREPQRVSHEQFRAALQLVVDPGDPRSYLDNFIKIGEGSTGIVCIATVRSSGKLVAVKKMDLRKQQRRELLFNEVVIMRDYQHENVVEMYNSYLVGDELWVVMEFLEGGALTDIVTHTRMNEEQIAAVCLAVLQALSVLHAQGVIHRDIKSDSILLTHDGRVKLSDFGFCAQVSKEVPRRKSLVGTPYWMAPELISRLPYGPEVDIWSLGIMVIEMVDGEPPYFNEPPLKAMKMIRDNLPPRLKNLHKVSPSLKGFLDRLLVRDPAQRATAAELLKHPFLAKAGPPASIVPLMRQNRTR
CYP2C9, sequence (P11712 whole entry): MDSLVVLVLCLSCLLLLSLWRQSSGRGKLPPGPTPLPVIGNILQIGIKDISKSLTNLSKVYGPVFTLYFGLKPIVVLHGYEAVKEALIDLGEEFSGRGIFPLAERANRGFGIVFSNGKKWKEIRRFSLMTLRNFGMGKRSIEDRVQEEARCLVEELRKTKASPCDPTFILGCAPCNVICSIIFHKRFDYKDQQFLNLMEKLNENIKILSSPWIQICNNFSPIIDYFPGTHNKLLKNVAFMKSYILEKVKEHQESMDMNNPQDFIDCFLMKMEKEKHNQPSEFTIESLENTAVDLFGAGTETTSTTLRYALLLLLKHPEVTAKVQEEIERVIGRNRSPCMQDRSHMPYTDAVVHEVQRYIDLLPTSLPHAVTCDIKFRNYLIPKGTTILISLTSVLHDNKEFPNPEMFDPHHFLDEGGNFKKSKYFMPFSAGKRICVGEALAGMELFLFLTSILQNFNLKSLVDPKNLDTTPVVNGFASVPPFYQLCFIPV
CYP2D6, sequence (P10635 whole entry): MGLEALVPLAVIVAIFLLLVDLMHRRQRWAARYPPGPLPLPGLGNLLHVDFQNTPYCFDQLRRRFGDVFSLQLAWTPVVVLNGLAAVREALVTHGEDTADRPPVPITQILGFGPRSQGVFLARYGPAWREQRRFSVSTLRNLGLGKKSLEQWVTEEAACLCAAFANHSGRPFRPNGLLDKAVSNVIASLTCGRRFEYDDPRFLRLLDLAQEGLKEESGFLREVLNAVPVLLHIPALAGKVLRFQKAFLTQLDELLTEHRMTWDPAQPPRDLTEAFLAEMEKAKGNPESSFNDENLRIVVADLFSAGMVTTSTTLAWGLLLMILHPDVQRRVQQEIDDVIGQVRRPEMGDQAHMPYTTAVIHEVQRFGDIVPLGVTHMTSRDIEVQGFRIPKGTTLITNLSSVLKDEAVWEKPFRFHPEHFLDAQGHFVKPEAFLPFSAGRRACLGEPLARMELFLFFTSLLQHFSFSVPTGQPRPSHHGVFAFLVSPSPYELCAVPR

For `Nc1ccc(S(=O)(=O)Nc2ccnn2-c2ccccc2)cc1` [SULFAPHENAZOLE], the inhibition at 0.25 h, 10 µM against CYP2C9 is 81.4%.
`C=C[C@H]1C[N@@]2CC[C@H]1C[C@@H]2[C@@H](O)c1ccnc2ccc(OC)cc12` [QUINIDINE] came in with an inhibition at 0.25 h, 10 µM against CYP2D6 of 95.9%.
Regarding `Cc1cc(Nc2nc(NCc3ccccc3F)nc3[nH]ncc23)n[nH]1`, the IC50 in data set [1] was 1 nM; in data set [2], 389 nM; in the data set with BT-474, 13200 nM; in the data set on MCF7, 2310 nM; with MDA-MB-231, 9850 nM.
Take `Cc1cc(Nc2nc(NCc3ccccc3Br)nc3[nH]ncc23)n[nH]1`: the concentration for half-maximal inhibition (IC50) was determined as 8.7 nM in data set [1]; 1090 nM in data set [2]; 10100 nM with BT-474; 14100 nM in the data set on MCF7; 3990 nM in the data set on MDA-MB-231.
As for `Cc1cc(Nc2cc(Cc3ccccc3)nc(NC3CCNCC3)n2)n[nH]1`, the IC50 in data set [3] was 351 nM; in data set [5], 5.9 nM. In data set [4], the inhibition was 58.4%.
